Measurements from US11999699B2, “Substituted pyrazole amides” (GRUENENTHAL GMBH, priority 2021, dated 2024).

target: T1, human NaV1.8 (Homo sapiens, UniProt Q9Y5Y9); assay: Electrophysiology: automated whole-cell voltage-clamp (patch clamp, Qube384) recordings of sodium currents in HEK-NaV1.8 cells; assay type: cell-based; conditions: potency data either taken from inactivated or resting state, read-out: Potency category (human NaV1.8 IC50)
T1 construct: The following NaV1.8 recombinant cell line was used for recordings: HEK-NaV1.8 (NM 006514.1); expressed in transfected cells; host or cells: HEK (recombinant cell line HEK-NaV1.8)
T1 sequence (Q9Y5Y9 whole entry): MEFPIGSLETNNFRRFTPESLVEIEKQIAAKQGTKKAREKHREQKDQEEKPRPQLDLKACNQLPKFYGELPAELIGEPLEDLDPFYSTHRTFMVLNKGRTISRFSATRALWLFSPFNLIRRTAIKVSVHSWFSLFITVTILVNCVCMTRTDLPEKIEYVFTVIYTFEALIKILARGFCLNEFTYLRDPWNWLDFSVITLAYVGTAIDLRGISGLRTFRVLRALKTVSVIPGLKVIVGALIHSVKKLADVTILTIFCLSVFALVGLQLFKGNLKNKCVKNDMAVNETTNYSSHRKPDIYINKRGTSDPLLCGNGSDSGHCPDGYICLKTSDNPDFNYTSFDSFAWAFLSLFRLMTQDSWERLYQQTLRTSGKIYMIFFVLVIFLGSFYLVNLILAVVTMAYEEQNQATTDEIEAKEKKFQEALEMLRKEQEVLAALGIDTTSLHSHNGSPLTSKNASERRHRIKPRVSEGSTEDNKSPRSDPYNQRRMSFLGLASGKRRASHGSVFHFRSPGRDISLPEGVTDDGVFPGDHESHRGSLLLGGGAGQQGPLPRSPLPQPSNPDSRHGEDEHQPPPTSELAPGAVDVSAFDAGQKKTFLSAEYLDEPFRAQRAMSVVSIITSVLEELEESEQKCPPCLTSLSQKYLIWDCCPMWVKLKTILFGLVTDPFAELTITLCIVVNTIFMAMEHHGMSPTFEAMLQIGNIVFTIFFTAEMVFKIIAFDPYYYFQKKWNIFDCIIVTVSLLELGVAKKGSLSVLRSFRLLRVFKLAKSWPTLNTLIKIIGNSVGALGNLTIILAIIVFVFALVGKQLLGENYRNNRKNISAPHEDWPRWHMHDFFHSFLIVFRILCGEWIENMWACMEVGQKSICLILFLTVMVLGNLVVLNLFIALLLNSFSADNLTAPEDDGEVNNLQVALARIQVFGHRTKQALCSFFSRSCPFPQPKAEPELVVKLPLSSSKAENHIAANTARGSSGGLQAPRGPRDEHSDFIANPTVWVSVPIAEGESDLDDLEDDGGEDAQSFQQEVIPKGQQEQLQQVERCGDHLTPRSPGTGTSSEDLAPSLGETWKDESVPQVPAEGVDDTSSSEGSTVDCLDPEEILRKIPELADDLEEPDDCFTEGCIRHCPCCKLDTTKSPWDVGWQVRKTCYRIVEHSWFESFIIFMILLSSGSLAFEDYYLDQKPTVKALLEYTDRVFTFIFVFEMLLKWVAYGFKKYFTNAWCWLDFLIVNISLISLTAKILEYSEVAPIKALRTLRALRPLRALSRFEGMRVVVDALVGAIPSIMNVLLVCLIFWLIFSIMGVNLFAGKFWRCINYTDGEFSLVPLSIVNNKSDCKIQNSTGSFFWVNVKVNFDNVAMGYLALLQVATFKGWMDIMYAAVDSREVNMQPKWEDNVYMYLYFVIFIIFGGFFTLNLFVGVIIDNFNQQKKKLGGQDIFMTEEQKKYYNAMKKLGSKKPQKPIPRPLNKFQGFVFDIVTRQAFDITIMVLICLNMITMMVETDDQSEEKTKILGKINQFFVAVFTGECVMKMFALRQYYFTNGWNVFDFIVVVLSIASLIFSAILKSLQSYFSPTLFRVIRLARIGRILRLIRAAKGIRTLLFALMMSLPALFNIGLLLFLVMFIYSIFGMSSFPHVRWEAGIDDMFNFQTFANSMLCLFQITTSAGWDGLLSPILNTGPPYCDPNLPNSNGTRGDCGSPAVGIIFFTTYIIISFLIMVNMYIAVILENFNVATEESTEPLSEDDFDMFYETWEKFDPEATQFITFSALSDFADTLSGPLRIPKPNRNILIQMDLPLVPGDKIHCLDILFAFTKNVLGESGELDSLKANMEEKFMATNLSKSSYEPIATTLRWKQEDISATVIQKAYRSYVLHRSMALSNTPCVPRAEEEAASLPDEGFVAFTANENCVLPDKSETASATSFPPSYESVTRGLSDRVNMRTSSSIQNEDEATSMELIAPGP
T1 sequence (Q9NY72 23-215 partner): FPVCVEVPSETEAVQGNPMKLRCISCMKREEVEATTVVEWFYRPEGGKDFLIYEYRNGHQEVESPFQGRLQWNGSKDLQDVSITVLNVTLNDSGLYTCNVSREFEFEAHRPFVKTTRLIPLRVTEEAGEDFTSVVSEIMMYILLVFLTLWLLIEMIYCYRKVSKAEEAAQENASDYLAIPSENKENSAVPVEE
Summary of the method: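 Automated whole-cell patch clamp at room temperature on HEK cells expressing human NaV1.8, with 0.3% DMSO vehicle controls. State-dependent protocol from −120 mV tested resting (P1) and half-inactivated (P2, 4 s at V1/2) channels, plus 40-pulse trains at 10 and 20 Hz. Values after ~12 min compound exposure were normalised to baseline and corrected for vehicle run-down; IC50 from a 4-parameter logistic fit, taken from inactivated or resting state.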

SMILES	IC50 [nM]
NS(=O)(=O)c1cc(NC(=O)c2c(C(F)(F)F)c(C3CC3)nn2CC2CCC(F)(F)CC2)ccn1 [SC-246, 3-cyclopropyl-1-((4,4-difluorocyclohexyl)methyl)-N-(2-sulfamoylpyridin-4-yl)-4-(trifluoromethyl)-1H-pyrazole-5-carboxamide]	≤ 100
Cc1nn(C[C@@H]2CCC(F)(F)C2)c(C(=O)Nc2cncc(C(N)=O)c2)c1C(F)(F)F [SC-247R]	1000 to 10000
Cc1nn(C[C@H]2CCC(F)(F)C2)c(C(=O)Nc2cncc(C(N)=O)c2)c1C(F)(F)F [SC-247S]	100 to 1000
Cc1nn(C[C@@H]2CCC(F)(F)C2)c(C(=O)Nc2ccnc(C(N)=O)n2)c1C(F)(F)F [SC-248R]	1000 to 10000
Cc1nn(C[C@H]2CCC(F)(F)C2)c(C(=O)Nc2ccnc(C(N)=O)n2)c1C(F)(F)F [SC-248S]	1000 to 10000
Cc1cnc(C(N)=O)cc1NC(=O)c1c(C(F)(F)F)c(C)nn1CC1CCC(F)(F)CC1 [SC-249, 4-(1-((4,4-difluorocyclohexyl)methyl)-3-methyl-4-(trifluoromethyl)-1H-pyrazole-5-carboxamido)-5-methyipicolinamide]	100 to 1000
CS(=O)(=O)c1cc(NC(=O)c2c(C(F)(F)F)c(C3CC3)nn2CC2CCC(F)(F)CC2)ccn1 [SC-250, 3-cyclopropyl-1-((4,4-difluorocyclohexyl)methyl)-N-(2-(methylsulfonyl)pyridin-4-yl)-4-(trifluoromethyl)-1H-pyrazole-5-carboxamide]	≤ 100
Cc1ncc(NC(=O)c2c(C(F)(F)F)c(C)nn2CC2CCC(F)(F)CC2)cc1C(N)=O [SC-251, 5-(1-((4,4-difluorocyclohexyl)methyl)-3-methyl-4-(trifluoromethyl)-1H-pyrazole-5-carboxamido)-2-methylnicotinamide]	1000 to 10000
Cc1cc(NC(=O)c2c(C(F)(F)F)c(C)nn2CC2CCC(F)(F)CC2)ccn1 [SC-252, 1-((4,4-difluorocyclohexyl)methyl)-3-methyl-N-(2-methylpyridin-4-yl)-4-(trifluoromethyl)-1H-pyrazole-5-carboxamide]	100 to 1000
Cc1nn(CC2CCC(F)(F)CC2)c(C(=O)Nc2cccc(C(N)=O)n2)c1C(F)(F)F [SC-253, 6-(1-((4,4-difluorocyclohexyl)methyl)-3-methyl-4-(trifluoromethyl)-1H-pyrazole-5-carboxamido)picolinamide]	1000 to 10000
CS(=O)(=O)c1cccc(NC(=O)c2c(C(F)(F)F)cnn2CC2(O)CCCCC2)c1 [SC-255, 1-((1-hydroxycyclohexyl)methyl)-N-(3-(methylsulfonyl)phenyl)-4-(trifluoromethyl)-1H-pyrazole-5-carboxamide]	1000 to 10000
Cc1nn(CC2CCC(F)(F)CC2)c(C(=O)Nc2ncc(C(N)=O)o2)c1C(F)(F)F [SC-256, 2-(1-((4,4-difluorocyclohexyl)methyl)-3-methyl-4-(trifluoromethyl)-1H-pyrazole-5-carboxamido)oxazole-5-carboxamide]	1000 to 10000
Cc1nn(CC2CCC(F)(F)CC2)c(C(=O)Nc2ccc(C(N)=O)nc2)c1C(F)(F)F [SC-257, 5-(1-((4,4-difluorocyclohexyl)methyl)-3-methyl-4-(trifluoromethyl)-1H-pyrazole-5-carboxamido)picolinamide]	100 to 1000
CNC(=O)c1cc(NC(=O)c2c(C(F)(F)F)c(C)nn2CC2CCC(F)(F)CC2)ccn1 [SC-260, 4-(1-((4,4-difluorocyclohexyl)methyl)-3-methyl-4-(trifluoromethyl)-1H-pyrazole-5-carboxamido)-N-methyIpicolinamide]	100 to 1000
NC(=O)c1cc(NC(=O)c2c(Cl)c(C3CC3)nn2CC2CCOCC2)ccn1 [SC-261, 4-(4-chloro-3-cyclopropyl-1-((tetrahydro-2H-pyran-4-yl)methyl)-1H-pyrazole-5-carboxamido)picolinamide]	100 to 1000
NS(=O)(=O)c1cccc(NC(=O)c2c(C(F)(F)F)c(C(F)F)nn2CC2CCC(F)(F)C2)c1 (stereo not shown) [SC-262, 1-((3,3-difluorocyclopentyl)methyl)-3-(difluoromethyl)-N-(3-sulfamoylphenyl)-4-(trifluoromethyl)-1H-pyrazole-5-carboxamide]	≤ 100
CS(=O)(=O)c1cc(NC(=O)c2c(C(F)(F)F)c(C3CC3)nn2CC2CCCO2)ccn1 (stereo not shown) [SC-263, 3-cyclopropyl-N-(2-(methylsulfonyl)pyridin-4-yl)-1-((tetrahydrofuran-2-yl)methyl)-4-(trifluoromethyl)-1H-pyrazole-5-carboxamide]	100 to 1000

SMILES	IC50 [nM]
NS(=O)(=O)c1cccc(NC(=O)c2c(C(F)(F)F)c(C3CC3)nn2CC2CCCCO2)c1 (stereo not shown) [SC-264, 3-cyclopropyl-N-(3-sulfamoylphenyl)-1-((tetrahydro-2H-pyran-2-yl)methyl)-4-(trifluoromethyl)-1H-pyrazole-5-carboxamide]	≤ 100
COc1nn(CC2CCC(F)(F)C2)c(C(=O)Nc2cccc(S(N)(=O)=O)c2)c1C(F)(F)F (stereo not shown) [SC-265, 1-((3,3-difluorocyclopentyl)methyl)-3-methoxy-N-(3-sulfamoyIphenyl)-4-(trifluoromethyl)-1H-pyrazole-5-carboxamide]	≤ 100
NC(=O)c1cc(NC(=O)c2c(C(F)(F)F)c(C3CC3)nn2CC2CC2)ccn1 [SC-266, 4-(3-cyclopropyl-1-(cyclopropylmethyl)-4-(trifluoromethyl)-1H-pyrazole-5-carboxamido)picolinamide]	≤ 100
Cc1cc(NC(=O)c2c(C(F)(F)F)c(C)nn2CC2CCC(F)(F)CC2)cc(C(N)=O)n1 [SC-267, 4-(1-((4,4-difluorocyclohexyl)methyl)-3-methyl-4-(trifluoromethyl)-1H-pyrazole-5-carboxamido)-6-methylpicolinamide]	100 to 1000
Cc1nn(CC2CCC(F)(F)CC2)c(C(=O)Nc2cc(C(N)=O)c(F)cn2)c1C(F)(F)F [SC-268, 2-(1-((4,4-difluorocyclohexyl)methyl)-3-methyl-4-(trifluoromethyl)-1H-pyrazole-5-carboxamido)-5-fluoroisonicotinamide]	1000 to 10000
COc1c(C(F)(F)F)nn(CC2CCC(F)(F)C2)c1C(=O)Nc1ccnc(C(N)=O)c1 (stereo not shown) [SC-269, 4-(1-((3,3-difluorocyclopentyl)methyl)-4-methoxy-3-(trifluoromethyl)-lH-pyrazole-5-carboxamido)picolinamide]	100 to 1000
COc1nn(CC2CCC(F)(F)C2)c(C(=O)Nc2ccnc(C(N)=O)c2)c1C(F)(F)F (stereo not shown) [SC-273, 4-(1-((3,3-difluorocyclopentyl)methyl)-3-methoxy-4-(trifluoromethyl)-lH-pyrazole-5-carboxamido)picolinamide]	≤ 100
NC(=O)c1cc(NC(=O)c2c(C(F)(F)F)c(C3CC3)nn2CC2CC(F)(F)C2)ccc1F [SC-274, N-(3-carbamoyl-4-fluorophenyl)-3-cyclopropyl-1-((3,3-difluorocyclobutyl)methyl)-4-(trifluoromethyl)-1H-pyrazole-5-carboxamide]	≤ 100
CS(=O)(=O)c1cc(NC(=O)c2c(C(F)F)c(C3CC3)nn2CC2CCC(F)(F)C2)ccn1 (stereo not shown) [SC-275, 3-cyclopropyl-1-((3,3-difluorocyclopentyl)methyl)-4-(difluoromethyl)-N-(2-(methylsulfonyl)pyridin-4-yl)-1H-pyrazole-5-carboxamide]	≤ 100
NS(=O)(=O)c1cccc(NC(=O)c2c(C(F)(F)F)c(C3CC3)nn2CC2CC(F)(F)C2)c1 [SC-276, 3-cyclopropyl-1-((3,3-difluorocyclobutyl)methyl)-N-(3-sulfamoyIphenyl)-4-(trifluoromethyl)-lH-pyrazole-5-carboxamide]	≤ 100
Cc1nn(CC2CCC(F)(F)CC2)c(C(=O)Nc2cnnc(S(C)(=O)=O)c2)c1C(F)(F)F [SC-280, 1-((4,4-difluorocyclohexyl)methyl)-3-methyl-N-(6-(methylsulfonyl)pyridazin-4-yl)-4-(trifluoromethyl)-1H-pyrazole-5-carboxamide]	100 to 1000
NS(=O)(=O)c1cc(NC(=O)c2c(C(F)(F)F)c(C3CC3)nn2CC2CC(F)(F)C2)ccn1 [SC-282, 3-cyclopropyl-1-((3,3-difluorocyclobutyl)methyl)-N-(2-sulfamoylpyridin-4-yl)-4-(trifluoromethyl)-1H-pyrazole-5-carboxamide]	≤ 100
NC(=O)c1cc(NC(=O)c2c(C(F)(F)F)c(OC3CC(F)(F)C3)nn2CC2CCC(F)(F)C2)ccn1 (stereo not shown) [SC-283, 4-(3-(3,3-difluorocyclobutoxy)-1-((3,3-difluorocyclopentyl)methyl)-4-(trifluoromethyl)-1H-pyrazole-5-carboxamido)picolinamide]	≤ 100
Cc1nn(CC2CCC(F)(F)CC2)c(C(=O)Nc2ccnc(C(N)=O)c2F)c1C(F)(F)F [SC-289, 4-(1-((4,4-difluorocyclohexyl)methyl)-3-methyl-4-(trifluoromethyl)-1H-pyrazole-5-carboxamido)-3-fluoropicolinamide]	1000 to 10000
CS(=O)(=O)c1cc(NC(=O)c2c(C(F)(F)F)c(C3CC3)nn2CC2CC(OC(F)F)C2)ccn1 (stereo not shown) [SC-290, 3-cyclopropyl-1-((3-(difluoromethoxy)cyclobutyl)methyl)-N-(2-(methyIsulfonyl)pyridin-4-yl)-4-(trifluoromethyl)-1H-pyrazole-5-carboxamide]	100 to 1000
Cc1nn(CC2CCC(F)(F)CC2)c(C(=O)Nc2ccnc(C(N)=O)c2C)c1C(F)(F)F [SC-294, 4-(1-((4,4-difluorocyclohexyl)methyl)-3-methyl-4-(trifluoromethyl)-1H-pyrazole-5-carboxamido)-3-methylpicolinamide]	1000 to 10000
Cc1c(C(C)(F)F)nn(CC2CC(F)(F)C2)c1C(=O)Nc1cccc(S(N)(=O)=O)c1 [SC-295, 1-((3,3-difluorocyclobutyl)methyl)-3-(1,1-difluoroethyl)-4-methyl-N-(3-sulfamoylphenyl)-1H-pyrazole-5-carboxamide]	≤ 100
